Results reported in patent US10023592B2, “Bromodomain inhibitors” (Celgene Quanticel Research, Inc., priority 2013, dated 2018).

Legend:
[1] = test system: Raji, human Burkitts lymphoma cells; assay: Cell-MTS proliferation assay, Raji; format: cell-based; details: Homo sapiens, Raji; Cell-MTS proliferation, 168 hr
Outline: (§1)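 Seed: Raji 15,000, HL-60 5,000, NCI-H460 3,000 cells/96-well. +24 hr: 11-pt compound dilution, 100 μM–2.0 nM final. 7 d culture, MTS reagent, read OD490; IC50 vs DMSO, background subtracted.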

BRD4(BD1) = BRD4(BD1) (Homo sapiens (Human), UniProt O60885); assay: In vitro enzyme inhibition assay (BRD4 AlphaScreen); format: binding; details: in vitro enzyme inhibition assay
Outline: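 His-tagged BRD4 tested by AlphaScreen for binding of biotinylated H4K5/8/12/16-tetraacetyl peptide. After 20 min at room temperature, streptavidin donor and nickel chelate acceptor beads added (5 μg/mL final each). IC50 determined.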

[2] = test system: HL-60, human proleukemia cells; assay: Cell-MTS proliferation assay, HL-60; format: cell-based; details: Homo sapiens, HL-60; Cell-MTS proliferation, 168 hr
Outline: as §1

[3] = test system: NCI-H460, human non-small cell lung cancer cells; assay: Cell-MTS proliferation assay, NCI-H460; format: cell-based; details: Homo sapiens, NCI-H460; Cell-MTS proliferation, 168 hr
Outline: as §1

| SMILES | IC50 [1] [nM] | IC50 (BRD4(BD1)) [nM] | IC50 [2] [nM] | IC50 [3] [nM] |
| --- | --- | --- | --- | --- |
| CCCOc1ccc(S(=O)(=O)CC)cc1-c1cn(C)c(=O)c2cnc(-c3cnn(C)c3)nc12 [Example 225, 8-(5-ethylsulfonyl-2-propoxyphenyl)-6-methyl-2-(1-methylpyrazol-4-yl)pyrido[4,3-d]pyrimidin-5-one] | < 500 | < 500 | < 500 | > 5000 |
| CCOc1ccc(S(=O)(=O)CC)cc1-c1cn(C)c(=O)c2cnc(-c3cnn(C)c3)nc12 [Example 227, 8-(2-ethoxy-5-ethylsulfonylphenyl)-6-methyl-2-(1-methylpyrazol-4-yl)pyrido[4,3-d]pyrimidin-5-one] | 500 to 5000 | < 500 | < 500 | > 5000 |
| Cc1cc(-c2cc(N(C)S(C)(=O)=O)ccc2Oc2ccc(F)cc2F)cn(C)c1=O [Example 229, N-[4-(2,4-difluorophenoxy)-3-(1,5-dimethyl-6-oxopyridin-3-yl)phenyl]-N-methylmethanesulfonamide] | < 500 | < 500 | < 500 | > 5000 |
| Cc1cc(-c2cc(N(C3COC3)S(C)(=O)=O)ccc2Oc2ccc(F)cc2F)cn(C)c1=O [Example 230, N-[4-(2,4-difluorophenoxy)-3-(1,5-dimethyl-6-oxopyridin-3-yl)phenyl]-N-(oxetan-3-yl)methanesulfonamide] | < 500 | < 500 | < 500 | > 5000 |
| CCS(=O)(=O)Nc1ccc(Oc2ccc(F)cc2F)c(-c2cn(C)c(=O)c3nncn23)c1 [Example 236, N-[4-(2,4-difluorophenoxy)-3-(7-methyl-8-oxo-[1,2,4]triazolo[4,3-a]pyrazin-5-yl)phenyl]ethanesulfonamide] | > 5000 | < 500 | 500 to 5000 | > 5000 |
| CCS(=O)(=O)Nc1ccc(Oc2ccc(F)cc2F)c(-c2cn(C)c(=O)c3ncoc23)c1 [Example 240, N-[4-(2,4-difluorophenoxy)-3-(5-methyl-4-oxo-[1,3]oxazolo[4,5-c]pyridin-7-yl)phenyl]ethanesulfonamide] | < 500 | < 500 | < 500 | > 5000 |
| CCS(=O)(=O)Nc1ccc(Oc2ccc(F)cc2F)c(-c2cn(C)c(=O)c3nc(C)oc23)c1 [Example 241, N-[4-(2,4-difluorophenoxy)-3-(2,5-dimethyl-4-oxo-[1,3]oxazolo[4,5-c]pyridin-7-yl)phenyl]ethanesulfonamide] | < 500 | < 500 | < 500 | > 5000 |
| Cc1cc(-c2cc(S(C)(=O)=O)ccc2OCC2CC2)cn(CC(C)C)c1=O [Example 243, 5-[2-(cyclopropylmethoxy)-5-methylsulfonylphenyl]-3-methyl-1-(2-methylpropyl)pyridin-2-one] | > 5000 | 500 to 5000 | 500 to 5000 | > 5000 |
| CCS(=O)(=O)Nc1ccc(Oc2ccc(F)cc2F)c(-c2cc(C)c(=O)n(CC3CC3)c2)c1 [Example 247, N-[3-[1-(cyclopropylmethyl)-5-methyl-6-oxopyridin-3-yl]-4-(2,4-difluoro-phenoxy)phenyl]ethanesulfonamide] | < 500 | < 500 | < 500 | > 5000 |
| Cc1cc(-c2nc(NS(C)(=O)=O)ncc2Oc2ccc(F)cc2F)cn(CC2CC2)c1=O [Example 248, N-[4-[1-(cyclopropylmethyl)-5-methyl-6-oxopyridin-3-yl]-5-(2,4-difluorophenoxy)pyrimidin-2-yl]methanesulfonamide] | < 500 | < 500 | < 500 | > 5000 |
| CCS(=O)(=O)Nc1ncc(Oc2ccc(F)cc2F)c(-c2cc(C)c(=O)n(CC3CC3)c2)n1 [Example 249, N-[4-[1-(cyclopropylmethyl)-5-methyl-6-oxopyridin-3-yl]-5-(2,4-difluorophenoxy)pyrimidin-2-yl]ethanesulfonamide] | < 500 | < 500 | < 500 | > 5000 |
| CCS(=O)(=O)Nc1ccc(Oc2ccc(F)cc2F)c(-c2cn(C)c(=O)c3occc23)c1 [Example 253, N-[4-(2,4-difluorophenoxy)-3-(6-methyl-7-oxofuro[2,3-c]pyridin-4-yl)phenyl]ethanesulfonamide] | < 500 | < 500 | < 500 | > 5000 |
| CCS(=O)(=O)Nc1ccc(OCC2CC2)c(-c2cn(C)c(=O)c3occc23)c1 [Example 255, N-[4-(cyclopropylmethoxy)-3-(6-methyl-7-oxofuro[2,3-c]pyridine-4-yl)phenyl]ethanesulfonamide] | < 500 | < 500 | < 500 | > 5000 |
| CCS(=O)(=O)Nc1cnc(Oc2ccc(F)cc2F)c(-c2cn(C)c(=O)c3occc23)c1 [Example 256, N-[6-(2,4-difluorophenoxy)-5-(6-methyl-7-oxofuro[2,3-c]pyridin-4-yl)pyridine-3-yl]ethanesulfonamide] | < 500 | < 500 | < 500 | > 5000 |
| CCS(=O)(=O)Nc1cnc(OCC2CC2)c(-c2cn(C)c(=O)c3occc23)c1 [Example 257, N-[6-(cyclopropylmethoxy)-5-(6-methyl-7-oxofuro[2,3-c]pyridin-4-yl)pyridine-3-yl]ethanesulfonamide] | < 500 | < 500 | < 500 | > 5000 |
| Cn1cc(-c2cc(CS(C)(=O)=O)ccc2OCC(F)(F)F)c2ccoc2c1=O [Example 258, 6-methyl-4-[5-(methylsulfonylmethyl)-2-(2,2,2-trifluoroethoxy)phenyl]furo[2,3-c]pyridin-7-one] | 500 to 5000 | < 500 | < 500 | 500 to 5000 |

Now from value to molecule:

| IC50 [1] [nM] | IC50 (BRD4(BD1)) [nM] | IC50 [2] [nM] | IC50 [3] [nM] | SMILES |
| --- | --- | --- | --- | --- |
| < 500 | < 500 | < 500 | > 5000 | Cn1cc(-c2ncc3c(=O)n(C)cc(-c4cc(S(C)(=O)=O)ccc4OCC4CC4)c3n2)cn1 [Example 224, 8-[2-(cyclopropylmethoxy)-5-methylsulfonylphenyl]-6-methyl-2-(1-methylpyrazol-4-yl)pyrido[4,3-d]pyrimidin-5-one] |
| < 500 | < 500 | < 500 | > 5000 | CCS(=O)(=O)c1ccc(OCC2CC2)c(-c2cn(C)c(=O)c3cnc(-c4cnn(C)c4)nc23)c1 [Example 226, 8-[2-(cyclopropylmethoxy)-5-ethylsulfonylphenyl]-6-methyl-2-(1-methylpyrazol-4-yl)pyrido[4,3-d]pyrimidin-5-one] |
| > 5000 | > 5000 | > 5000 | > 5000 | Cn1cc(-c2cc(S(C)(=O)=O)ccc2OCC2CC2)n2cnnc2c1=O [Example 235, 5-[2-(cyclopropylmethoxy)-5-methylsulfonylphenyl]-7-methyl-[1,2,4]triazolo[4,3-a]pyrazin-8-one] |
| 500 to 5000 | < 500 | < 500 | > 5000 | Cc1nc2c(=O)n(C)cc(-c3cc(S(C)(=O)=O)ccc3OCC3CC3)c2o1 [Example 238, 7-[2-(cyclopropylmethoxy)-5-methylsulfonylphenyl]-2,5-dimethyl-[1,3]oxazolo[4,5-c]pyridin-4-one] |
| 500 to 5000 | < 500 | < 500 | > 5000 | Cc1cc(-c2cc(S(C)(=O)=O)ccc2OCC2CC2)cn(CC2CC2)c1=O [Example 242, 5-[2-(cyclopropylmethoxy)-5-methylsulfonylphenyl]-1-(cyclopropylmethyl)-3-methylpyridin-2-one] |
| > 5000 | 500 to 5000 | 500 to 5000 | > 5000 | COCCn1cc(-c2cc(S(C)(=O)=O)ccc2OCC2CC2)cc(C)c1=O [Example 244, 5-[2-(cyclopropylmethoxy)-5-methylsulfonylphenyl]-1-(2-methoxyethyl)-3-methylpyridin-2-one] |
| > 5000 | 500 to 5000 | > 5000 | > 5000 | Cc1cc(-c2cc(S(C)(=O)=O)ccc2OCC2CC2)cn(CC2COC2)c1=O [Example 245, 5-[2-(cyclopropylmethoxy)-5-methylsulfonylphenyl]-3-methyl-1-(oxetan-3-ylmethyl)pyridin-2-one] |
| > 5000 | 500 to 5000 | > 5000 | > 5000 | Cc1cc(-c2cc(S(C)(=O)=O)ccc2OCC2CC2)cn(Cc2cocn2)c1=O [Example 246, 5-[2-(cyclopropylmethoxy)-5-methylsulfonylphenyl]-3-methyl-1-(1,3-oxazol-4-ylmethyl)pyridin-2-one] |
| 500 to 5000 | < 500 | < 500 | > 5000 | CCS(=O)(=O)c1ccc(OCC2CC2)c(-c2cc(C)c(=O)n(C3CC3)c2)c1 [Example 251, 1-cyclopropyl-5-[2-(cyclopropylmethoxy)-5-ethylsulfonylphenyl]-3-methylpyridin-2-one] |
| < 500 | < 500 | < 500 | > 5000 | CCS(=O)(=O)c1ccc(OCC2CC2)c(-c2cn(C)c(=O)c3occc23)c1 [Example 252, 4-[2-(cyclopropylmethoxy)-5-ethylsulfonylphenyl]-6-methylfuro[2,3-c]pyridine-7-one] |
| < 500 | < 500 | < 500 | > 5000 | Cn1cc(-c2cc(S(C)(=O)=O)ccc2OCC2CC2)c2ccoc2c1=O [Example 254, 4-[2-(cyclopropylmethoxy)-5-methylsulfonylphenyl]-6-methylfuro[2,3-c]pyridine-7-one] |
